Test results as given in PMC9339071, “Toward in vivo proof of binding of ^18F-labeled inhibitor [^18F]TRACK to peripheral tropomyosin receptor kinases” (EJNMMI Research, 2022).

Target: T1, TrkA (tropomyosin 3-TrkA fusion protein, TPM3-NTRK1) (Homo sapiens, UniProt P04629)
T1 construct: tropomyosin 3-TrkA fusion protein (TPM3-NTRK1), endogenous in KM12 cells
Assay: competition with [18F]TRACK radiotracer uptake in intact KM12 cells
Type: cell-based

T1 sequence (P04629 405-796 limits assumed): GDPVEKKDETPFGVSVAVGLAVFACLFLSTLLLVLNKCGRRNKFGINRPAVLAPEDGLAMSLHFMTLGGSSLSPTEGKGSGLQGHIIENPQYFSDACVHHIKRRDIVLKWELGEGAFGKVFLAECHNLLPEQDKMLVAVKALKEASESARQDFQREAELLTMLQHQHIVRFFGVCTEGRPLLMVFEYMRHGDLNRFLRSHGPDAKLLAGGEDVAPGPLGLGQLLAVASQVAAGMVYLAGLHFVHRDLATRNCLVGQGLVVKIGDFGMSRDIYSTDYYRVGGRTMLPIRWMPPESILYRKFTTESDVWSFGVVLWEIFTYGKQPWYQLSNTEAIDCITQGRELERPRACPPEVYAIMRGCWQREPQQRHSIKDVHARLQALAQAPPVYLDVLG
T1 sequence (P06753 2-285 partner): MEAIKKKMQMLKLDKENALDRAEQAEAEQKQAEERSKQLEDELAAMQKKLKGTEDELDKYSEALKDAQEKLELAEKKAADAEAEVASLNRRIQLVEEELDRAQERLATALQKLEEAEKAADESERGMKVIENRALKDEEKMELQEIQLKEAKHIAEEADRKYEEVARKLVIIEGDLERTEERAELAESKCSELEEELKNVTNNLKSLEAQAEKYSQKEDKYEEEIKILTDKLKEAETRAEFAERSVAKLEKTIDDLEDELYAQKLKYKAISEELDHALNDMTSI

SMILES: O=C(Nc1ccc(F)c(F)c1)c1cnc2ccc(N3CCC[C@@H]3c3cccc(F)c3)nn12 [TRACK]
- IC50: 29.4 ± 9.4 nM
